Experiments:
[1] = molecular target: T1, human 5-HT1A receptor (Homo sapiens (Human), UniProt P08908); assay: Test 1: binding activity for human 5-HT1A receptor ([3H]8-OH-DPAT); conditions: CHO cell membrane fraction
Procedure: (§1) Test 1: Evaluation of Binding Activity for Human 5-HT1A Receptor, Human 5-HT2A Receptor, and Human D2 Receptor
(§2) Binding affinity of the present compound for human 5-HT1A receptor, human 5-HT2A receptor, and human D2 receptor was measured by the following procedures.
(§3) Each mixture was incubated at room temperature for 60 minutes. Then, the mixture was added quickly on a glassfiber filter plate (Multiscreen FB, Millipore, Inc.) coated with 0.3% aqueous polyethylenimine, and vacuum-filtered. Radioactivity remaining on the filter was measured with a liquid scintillation counter (PerkinElmer, Inc.). Binding inhibition rate was calculated from the following formula.
(§4) IC50 value was calculated by Hill analysis (Physiology, 1910, 40, 190-200). Ki of each compound was calculated from the following formula. Binding inhibition constant (Ki)=IC50/(1+S/Kd) wherein S is concentration of ligand; Kd is a binding dissociation constant of ligand to membrane, which is calculated from a saturated binding experiment conducted with the same cell membrane. A small Ki value means strong binding ability to a receptor.

[2] = molecular target: T1, human 5-HT1A receptor; assay: Test 2: agonist activity for human 5-HT1A receptor ([35S]GTPγS binding); assay type: biochemical; conditions: agonist activity in the presence of 10 μM compound, relative to 100 μmol/L 5-HT
Procedure: Test 2: Evaluation of Agonist Activity for Human 5-HT1A Receptor
CHO cell membrane fraction in which human 5-HT1A receptor was expressed as used in Test 1 was purchased. To a buffer containing guanosine diphosphate were added a test compound dissolved in DMSO, each receptor membrane sample diluted with buffer, and [^35S] Guanosine 5′-O-[gamma-thio]triphosphate (GTPγS). The mixture was incubated at room temperature for 60 minutes. Then, the mixture was added quickly on a glassfiber filter plate (Multiscreen FB, Millipore, Inc.), and vacuum-filtered. Radioactivity remaining on the […] was measured with a liquid scintillation counter. Agonist activity was calculated from the following formula.

[3] = Test 4: metabolic stability test in human hepatic microsome; assay type: in vitro ADME; conditions: 0.1 mg/mL microsome, 0.1 μmol/L compound, NADPH, 37° C., 30 minutes
Procedure: Test 4: Metabolic Stability Test in Human Hepatic Microsome
The stability of the present compound in human hepatic microsome metabolism was evaluated as mentioned below. Human hepatic microsome was obtained from Xenontech. Human hepatic microsome, NADPH, and each test compound were mixed in 25 mmol/L phosphate buffer solution (pH 7.4) to reach the following concentrations as shown below, and the mixture was incubated at 37° C. for 30 minutes. • Human hepatic microsome: 0.1 mg/mL • NAPDH: 3.2 mmol/L • Test compound: 0.1 μmol/L
The residual ratio of the test compound in each sample after 30 minutes was measured by LC-MS, and the metabolic stability in human hepatic microsome was calculated from the following formula. Metabolic stability in human hepatic microsome (mL/min/mg protein)=−LN(residual ratio)/30/0.1

[4] = molecular target: human D2 receptor (Homo sapiens (Human), UniProt P14416); assay: Test 1: binding activity for human D2 receptor ([3H]Spiperone); conditions: for Ki: CHO cell membrane fraction, [3H]Spiperone; for D2 Ki/5-HT1A Ki: ratio of D2 Ki to 5-HT1A Ki; for D2 Ki/5-HT2A Ki: ratio of D2 Ki to 5-HT2A Ki
human D2 receptor, sequence (P14416 whole entry): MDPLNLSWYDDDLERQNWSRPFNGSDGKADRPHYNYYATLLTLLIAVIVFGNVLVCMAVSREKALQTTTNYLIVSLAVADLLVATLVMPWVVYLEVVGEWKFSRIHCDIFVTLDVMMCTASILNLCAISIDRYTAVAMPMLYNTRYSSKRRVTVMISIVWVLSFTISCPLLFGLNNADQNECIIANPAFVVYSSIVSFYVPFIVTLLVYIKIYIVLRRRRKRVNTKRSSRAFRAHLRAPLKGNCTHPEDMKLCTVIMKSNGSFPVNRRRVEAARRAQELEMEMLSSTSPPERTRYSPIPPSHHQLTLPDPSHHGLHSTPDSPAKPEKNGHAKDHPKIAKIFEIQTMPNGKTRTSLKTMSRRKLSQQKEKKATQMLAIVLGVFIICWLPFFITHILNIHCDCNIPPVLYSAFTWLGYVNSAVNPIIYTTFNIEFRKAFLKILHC
Procedure: as §1, §2, §3
as §4, with “Ki” for “IC50 value was calculated by Hill analysis (Physiology, 1910, 40, 190-200). Ki”

[5] = molecular target: P-gp (MDR1) (Homo sapiens (Human), UniProt P08183); assay: Test 9: P-gp substrate property (NFR, MDCKII and MDR1-MDCKII cells); assay type: in vitro ADME; conditions: ratio of Papp B-A/Papp A-B in MDR1-MDCKII cells to that in MDCKII cells
P-gp (MDR1), sequence (P08183 whole entry, species assumed): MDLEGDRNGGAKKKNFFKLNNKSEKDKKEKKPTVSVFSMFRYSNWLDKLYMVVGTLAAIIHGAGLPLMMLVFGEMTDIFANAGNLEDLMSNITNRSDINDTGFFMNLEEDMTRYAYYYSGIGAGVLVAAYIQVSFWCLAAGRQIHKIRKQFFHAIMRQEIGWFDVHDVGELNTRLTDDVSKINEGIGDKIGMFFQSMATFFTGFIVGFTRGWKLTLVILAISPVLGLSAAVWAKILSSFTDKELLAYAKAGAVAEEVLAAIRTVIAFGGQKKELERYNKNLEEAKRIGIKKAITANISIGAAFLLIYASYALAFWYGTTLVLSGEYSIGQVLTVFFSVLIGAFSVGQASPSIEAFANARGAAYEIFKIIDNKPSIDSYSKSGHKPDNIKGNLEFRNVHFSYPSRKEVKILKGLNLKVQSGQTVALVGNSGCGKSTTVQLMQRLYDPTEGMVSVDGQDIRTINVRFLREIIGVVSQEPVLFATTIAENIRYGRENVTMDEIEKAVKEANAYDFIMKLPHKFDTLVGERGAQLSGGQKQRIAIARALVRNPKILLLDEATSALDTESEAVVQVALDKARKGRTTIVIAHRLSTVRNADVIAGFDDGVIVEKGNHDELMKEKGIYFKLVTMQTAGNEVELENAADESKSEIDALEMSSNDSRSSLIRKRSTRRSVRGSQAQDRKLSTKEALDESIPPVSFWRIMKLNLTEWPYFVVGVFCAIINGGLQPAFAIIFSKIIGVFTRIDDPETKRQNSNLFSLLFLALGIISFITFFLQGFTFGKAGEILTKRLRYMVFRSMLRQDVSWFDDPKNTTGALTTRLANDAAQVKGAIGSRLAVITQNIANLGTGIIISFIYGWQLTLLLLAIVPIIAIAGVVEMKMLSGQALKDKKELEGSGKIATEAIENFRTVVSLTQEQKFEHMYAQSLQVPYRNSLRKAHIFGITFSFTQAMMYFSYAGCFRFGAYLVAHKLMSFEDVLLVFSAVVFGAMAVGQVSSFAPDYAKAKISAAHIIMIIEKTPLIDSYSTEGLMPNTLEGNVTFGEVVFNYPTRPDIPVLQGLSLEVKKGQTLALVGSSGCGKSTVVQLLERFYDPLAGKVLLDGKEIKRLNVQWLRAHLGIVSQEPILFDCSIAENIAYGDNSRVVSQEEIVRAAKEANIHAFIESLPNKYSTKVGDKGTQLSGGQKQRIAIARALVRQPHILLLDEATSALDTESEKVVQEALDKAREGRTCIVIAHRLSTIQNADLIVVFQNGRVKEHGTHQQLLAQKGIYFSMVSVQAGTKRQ
Procedure: Evaluation test for binding was carried out as follows with the CHO cell membrane fraction in which human target receptor was expressed. […] Each mixture was incubated at room temperature, added quickly on a glassfiber filter plate (Multiscreen FB, Millipore, Inc.), and vacuum-filtered. Radioactivity remaining on the filter was measured with a liquid scintillation counter (PerkinElmer, Inc.). Binding inhibition rate was calculated from the following formula.
NFR (Net Flux Ratio), which is an index of P-gp substrate property, can be calculated as follows. MDCKII (Madin-Darby canine kidney strain II) cells and MDR1-MDCKII cells in which MDR1 (multidrug resistance protein 1) was overexpressed were used to measure an apparent permeability coefficient (Papp A-B) from lumen (A) to basement membrane (B) and an apparent permeability coefficient (Papp B-A) from basement membrane (B) to lumen (A) of both MDCKII cells and MDR1-MDCKII cells. NFR (Net Flux Ratio) was calculated from the ratio between Ratio (Papp B-A/Papp A-B) of an apparent permeability coefficient of MDR1-MDCKII cells and Ratio of an apparent permeability coefficient of MDCKII cells.

T1 sequence (P08908 whole entry): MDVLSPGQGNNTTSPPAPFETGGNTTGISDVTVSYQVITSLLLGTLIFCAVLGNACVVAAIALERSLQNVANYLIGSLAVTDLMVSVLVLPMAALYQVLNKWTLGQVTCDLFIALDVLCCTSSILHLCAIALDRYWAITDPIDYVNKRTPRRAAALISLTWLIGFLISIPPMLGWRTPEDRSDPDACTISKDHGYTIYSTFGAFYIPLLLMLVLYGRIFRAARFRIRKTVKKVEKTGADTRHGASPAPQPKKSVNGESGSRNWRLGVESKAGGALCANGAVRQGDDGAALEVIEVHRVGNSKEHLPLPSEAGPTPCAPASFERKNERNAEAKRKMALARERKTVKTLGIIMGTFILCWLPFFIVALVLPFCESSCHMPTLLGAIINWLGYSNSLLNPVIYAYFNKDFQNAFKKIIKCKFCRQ

Compound	Metabolic stability in human hepatic microsome [3]	further results
COc1cc2c(cn1)C(=O)N(CCN1CCC(c3noc4ccccc34)CC1)CC2 [Example 20]	0.091 mL/min/mg protein	Ki [1]: 0.77 nM; 5-HT1A agonist activity Emax [2]: 52%; Ki [4]: 1890 nM
Cn1cnc2c1CCN(CCN1CCN(c3nsc4ccccc34)CC1)C2=O [Example 54]	<0.01 mL/min/mg protein	NFR (Net Flux Ratio) [5]: 6.6
Cn1ncc2c1C(=O)N(CCN1CCN(c3nsc4ccccc34)CC1)CC2 [Example 59]	–	NFR (Net Flux Ratio) [5]: 1.1; D2 Ki/5-HT1A Ki [4]: 63
Cn1ccc2c1CCN(CCN1CCC(c3noc4ccccc34)CC1)C2=O [Example 60]	0.018 mL/min/mg protein	NFR (Net Flux Ratio) [5]: 1.5; D2 Ki/5-HT1A Ki [4]: 19
Cn1nc(Br)c2c1CCN(CCN1CCN(c3nsc4ccccc34)CC1)C2=O [Example 69]	–	Ki [1]: 10.4 nM; Emax at 10 µM [2]: 45%; Ki [4]: 360 nM
Cn1ncc2c1C(=O)N(CCN1CCC(c3noc4ccccc34)CC1)CC2 [Example 96, 6-{2-[4-(1,2-Benzoisoxazol-3-yl)piperidin-1-yl]ethyl}-1-methyl-1,4,5,6-tetrahydro-7H-pyrazolo[3,4-c]pyridin-7-one]	0.019 mL/min/mg protein	D2 Ki/5-HT1A Ki [4]: 9; D2 Ki/5-HT2A Ki [4]: 14
Cn1cnc2c1CCCN(CCN1CCC(c3noc4ccccc34)CC1)C2=O [Example 101, 5-{2-[4-(1,2-Benzoisoxazol-3-yl)piperidin-1-yl]ethyl}-1-methyl-5,6,7,8-tetrahydroimidazo[4,5-c]azepin-4(1H)-one]	–	D2 Ki/5-HT1A Ki [4]: 17
O=C1c2cnc(OC3COC3)cc2CCN1CCN1CCN(c2nsc3ccccc23)CC1 [Example 111, 2-{2-[4-(1,2-Benzoisothiazol-3-yl)piperazin-1-yl]ethyl}-6-[(oxetan-3-yl)oxy]-3,4-dihydro-2,7-naphthyridin-1(2H)-one]	–	D2 Ki/5-HT2A Ki [4]: 530
Cc1cncc2c1CCN(CCN1CCN(c3noc4ccccc34)CC1)C2=O [Example 137]	<0.05 mL/min/mg protein	D2 Ki/5-HT1A Ki [4]: 5.8
COc1ccc2onc(C3CCN(CCN4CCc5cccnc5C4=O)CC3)c2c1 [Example 142]	–	D2 Ki/5-HT2A Ki [4]: >61.0
O=C1c2nc(Cl)ccc2CCN1CCN1CCC(c2noc3ccccc23)CC1 [Example 146]	<0.05 mL/min/mg protein	NFR (Net Flux Ratio) [5]: 2.3
CC(C)n1ncc2c1CCN(CCN1CCC(c3noc4ccccc34)CC1)C2=O [Example 159]	<0.05 mL/min/mg protein	–
O=C1c2cnn(C3CC3)c2CCN1CCN1CCN(c2nsc3ccccc23)CC1 [Example 160]	0.13 mL/min/mg protein	–
O=C1c2cnn(C3CC3)c2CCN1CCN1CCC(c2noc3ccccc23)CC1 [Example 161]	<0.05 mL/min/mg protein	–
CC(C)c1nc2c(o1)C(=O)N(CCN1CCC(c3noc4ccccc34)CC1)CC2 [Example 164]	0.097 mL/min/mg protein	–
Cc1cc2c(n1C)CCCN(CCN1CCC(c3noc4ccccc34)CC1)C2=O [Example 166]	<0.05 mL/min/mg protein	–
Cn1ccc2c1CCN(CCN1CCN(c3noc4ccccc34)CC1)C2=O [Example 170]	<0.05 mL/min/mg protein	–
Cc1c2c(nn1C)CCN(CCN1CCN(c3noc4ccccc34)CC1)C2=O [Example 171]	<0.05 mL/min/mg protein	–
COc1ncc2c(n1)CCN(CCN1CCC(c3noc4ccccc34)CC1)C2=O [Example 176]	<0.05 mL/min/mg protein	–
COc1ncc2c(n1)CCN(CCN1CCN(c3nsc4ccccc34)CC1)C2=O [Example 177]	0.095 mL/min/mg protein	–
Cc1ccc2c(n1)C(=O)N(CCN1CCN(c3noc4ccccc34)CC1)CC2 [Example 183]	<0.05 mL/min/mg protein	–
Cc1ccc2c(n1)C(=O)N(CCN1CCC(c3noc4ccccc34)CC1)CC2 [Example 184]	<0.05 mL/min/mg protein	–
CCc1ccc2c(n1)C(=O)N(CCN1CCC(c3noc4ccccc34)CC1)CC2 [Example 185]	<0.05 mL/min/mg protein	NFR (Net Flux Ratio) [5]: 2.4
O=C1c2nc(F)ccc2CCN1CCN1CCC(c2noc3ccccc23)CC1 [Example 188, 7-{2-[4-(1,2-Benzoisoxazol-3-yl)piperidin-1-yl]ethyl}-2-fluoro-6,7-dihydro-1,7-naphthyridin-8(5H)-one]	<0.05 mL/min/mg protein	–
O=C1c2cn[nH]c2CCN1CCN1CCC(c2noc3ccccc23)CC1 [Example 189, 5-{2-[4-(1,2-Benzoisoxazol-3-yl)piperidin-1-yl]ethyl}-1,5,6,7-tetrahydro-4H-pyrazolo[4,3-c]pyridin-4-one]	<0.05 mL/min/mg protein	–
O=C1c2ncoc2CCN1CCN1CCC(c2noc3ccccc23)CC1 [Example 190, 5-{2-[4-(1,2-Benzoisoxazol-3-yl)piperidin-1-yl]ethyl}-6,7-dihydro[1,3]oxazolo[4,5-c]pyridin-4(5H)-one]	<0.05 mL/min/mg protein	–
O=C1c2nc[nH]c2CCN1CCN1CCC(c2noc3ccccc23)CC1 [Example 191, 5-{2-[4-(1,2-Benzoisoxazol-3-yl)piperidin-1-yl]ethyl}-6,7-dihydro[1,3]imidazolo[4,5-c]pyridin-4(5H)-one]	<0.05 mL/min/mg protein	–
O=C1c2c(Br)n[nH]c2CCN1CCN1CCC(c2noc3ccccc23)CC1 [Example 192, 5-{2-[4-(1,2-Benzoisoxazol-3-yl)piperidin-1-yl]ethyl}-3-bromo-1,5,6,7-tetrahydro-4H-pyrazolo[4,3-c]pyridin-4-one]	<0.05 mL/min/mg protein	–
Cc1ncc2c(=O)n(CCN3CCC(c4noc5ccccc45)CC3)ccc2n1 [Example 194, 6-{2-[4-(1,2-Benzoisoxazol-3-yl)piperidin-1-yl]ethyl}-2-methylpyrido[4,3-d]pyrimidin-5(6H)-one]	<0.05 mL/min/mg protein	–

From patent US11466007B2, “Substituted lactams showing serotonin 5-HT receptor activity” (Sumitomo Pharma Co., Ltd., priority 2018, dated 2022)
